According to paper PMC4724233 (European journal of medicinal chemistry, 2015):

How the values were obtained:
[1] = biological target: T1, GST-hCAR-LBD (Homo sapiens, UniProt Q14994); assay: CAR-mediated fluorescent PGC1α coactivator recruitment/repression assay; conditions: ratio of IC50 values; for fold more potent than lead compound CINPA1 (11) / fold increase of IC50 (less potent) relative to lead chemical 11: comparator 11 (IC50 687 nM)
T1 sequence (Q14994 109-348 isoform Q14994-2 limits assumed): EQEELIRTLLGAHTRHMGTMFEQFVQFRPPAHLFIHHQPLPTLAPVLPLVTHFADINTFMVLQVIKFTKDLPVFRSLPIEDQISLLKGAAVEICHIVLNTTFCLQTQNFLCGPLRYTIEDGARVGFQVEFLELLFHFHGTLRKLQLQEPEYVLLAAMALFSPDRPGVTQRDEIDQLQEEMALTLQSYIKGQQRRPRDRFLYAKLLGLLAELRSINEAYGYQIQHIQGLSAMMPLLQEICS

[2] = tested on: PXR; conditions: only at very high concentrations, 20 or 40 μM; cited from earlier work
[3] = tested on: CAR; conditions: only at very high concentrations, 20 or 40 μM; cited from earlier work
[4] = tested on: PXR; conditions: cited from earlier work
[5] = tested on: hCAR; conditions: cultured human hepatocytes; cited from earlier work

Compound | fold more potent than lead compound CINPA1 (11) [1] | fold increase of IC50 (less potent) relative to lead chemical 11 [1] | also measured
O=C(Nc1ccc2c(c1)N(C(=O)Cn1cccc1)c1ccccc1CC2)OC1CCCCC1 [Compound 72, Cyclohexyl (5-(2-(1H-pyrrol-1-yl)acetyl)-10,11-dihydro-5H-dibenzo[b,f]azepin-3-yl)carbamate] | about 59 fold |  | 
CCOC(=O)Nc1ccc2c(c1)N(C(=O)CN1CCN(C)CC1)c1ccccc1CC2 [Compound 13] |  | 56 fold | 
CCOC(=O)Nc1ccc2c(c1)N(C(=O)CCN(CC)CC)c1ccccc1CC2 [Compound 33, Ethyl (5-(3-(diethylamino)propanoyl)-10,11-dihydro-5H-dibenzo[b,f]azepin-3-yl)carbamate] |  | 3.5 fold | 
C=CCN=C=S [AITC, allyl isothiocyanate] |  |  | inhibitory effect against PXR [2]: inhibitory effects against both CAR and PXR; inhibitory effect against CAR [3]: inhibitory effects against both CAR and PXR
CCOC(=O)Nc1ccc2c(c1)N(C(=O)COC(C)(C)C)c1ccccc1CC2 [Compound 35, Ethyl (5-(2-(tert-butoxy)acetyl)-10,11-dihydro-5H-dibenzo[b,f]azepin-3-yl)carbamate] | 9.7 fold |  | 
CCOC(=O)Nc1ccc2c(c1)N(C(=O)Cn1cccc1)c1ccccc1CC2 [Compound 29, Ethyl (5-(2-(1H-pyrrol-1-yl)acetyl)-10,11-dihydro-5H-dibenzo[b,f]azepin-3-yl)carbamate] | 19 fold |  | fold more potent than chemical 24 ([1]; comparator 24): 43 fold
CCOC(=O)Nc1ccc2c(c1)N(C(=O)CN1C(C)(C)CCCC1(C)C)c1ccccc1CC2 [Compound 26, Ethyl (5-(2-(2,2,6,6-tetramethylpiperidin-1-yl)acetyl)-10,11-dihydro-5H-dibenzo[b,f]azepin-3-yl)carbamate] |  |  | fold IC50 relative to chemical 25 ([1]; comparator 25): over 6 fold
CCOC(=O)Nc1ccc2c(c1)N(C(=O)CN1CCOCC1)c1ccccc1CC2 [Compound 12] | about 3 fold |  | 
CCOC(=O)Nc1ccc2c(c1)N(C(=O)Cn1ccnc1)c1ccccc1CC2 [Compound 30, Ethyl (5-(2-(1H-imidazol-1-yl)acetyl)-10,11-dihydro-5H-dibenzo[b,f]azepin-3-yl)carbamate] |  |  | fold IC50 relative to chemical 29 ([1]; comparator 29, loss of activity): 186 fold
CCOC(=O)Nc1ccc2c(c1)N(C(=O)CN1CCCC1)c1ccccc1CC2 [Compound 24, Ethyl (5-(2-(pyrrolidin-1-yl)acetyl)-10,11-dihydro-5H-dibenzo[b,f]azepin-3-yl)carbamate] |  | more than 2 fold | 
CCN(CC)CC(=O)N1c2ccccc2CCc2ccc(Nc3nnc(C)o3)cc21 [Compound 44, 2-(Diethylamino)-1-(3-((5-methyl-1,3,4-oxadiazol-2-yl)amino)-10,11-dihydro-5H-dibenzo[b,f]azepin-5-yl)ethan-1-one] |  | about 3.4 fold | 
CCCN(CCC)CC(=O)N1c2ccccc2CCc2ccc(NC(=O)OCC)cc21 [Compound 22, Ethyl (5-(dipropylglycyl)-10,11-dihydro-5H-dibenzo[b,f]azepin-3-yl)carbamate] | 3 fold |  | 
CC(C)OC(=O)Nc1ccc2c(c1)N(C(=O)CCN(C)C)c1ccccc1CC2 [Compound 20] |  |  | fold increase in potency compared to chemical 18 ([1]; comparator 18): about 3 fold
CCOC(=O)Nc1ccc2c(c1)N(C(=O)CN(CC)CC)c1ccccc1CC2 [Compound 11, ethyl (5-(diethylglycyl)-10,11-dihydro-5H-dibenzo[b,f]azepin-3-yl)carbamate] |  |  | PXR activation [4]: does not activate PXR
CC(C)OC(=O)Nc1ccc2c(c1)N(C(=O)Cn1cccc1)c1ccccc1CC2 [Compound 56, Isopropyl (5-(2-(1H-pyrrol-1-yl)acetyl)-10,11-dihydro-5H-dibenzo[b,f]azepin-3-yl)carbamate] | 32.8 fold |  | 
CCOC(=O)Nc1ccc2c(c1)N(C(=O)CN1C(=O)C=CC1=O)c1ccccc1CC2 [Compound 28, Ethyl (5-(2-(2,5-dioxo-2,5-dihydro-1H-pyrrol-1-yl)acetyl)-10,11-dihydro-5H-dibenzo[b,f]azepin-3-yl)carbamate] |  |  | fold IC50 relative to chemical 24 ([1]; comparator 24, less active): 25 fold
CCOC(=O)Nc1ccc2c(c1)N(C(=O)CN(C(C)C)C(C)C)c1ccccc1CC2 [Compound 23, Ethyl (5-(diisopropylglycyl)-10,11-dihydro-5H-dibenzo[b,f]azepin-3-yl)carbamate] |  | more than 4 fold | 
Cc1cccc(CN2CCN(C(c3ccccc3)c3ccc(Cl)cc3)CC2)c1 (stereo not shown) [Meclizine] |  |  | hCAR inverse agonist or antagonist effect [5]: failed to act as an effective hCAR inverse agonist or antagonist
CCOC(=O)Nc1ccc2c(c1)N(C(=O)CNC(C)(C)C)c1ccccc1CC2 [Compound 16] |  | 5 fold | 
CCOC(=O)Nc1ccc2c(c1)N(C(=O)CNC(C)(C)CC)c1ccccc1CC2 [Compound 32, Ethyl (5-(tert-pentylglycyl)-10,11-dihydro-5H-dibenzo[b,f]azepin-3-yl)carbamate] |  | 3 fold | 
